The results in this text go back to ChEMBL document CHEMBL1138420, “Discovery of adamantane ethers as inhibitors of 11beta-HSD-1: Synthesis and biological evaluation” (Bioorg Med Chem Lett, 2007).

Structures are written as SMILES. pIC50: −log10 of the molar value.

The target of series [1] is 11-beta-hydroxysteroid dehydrogenase 1 (Mus musculus, UniProt P50172). Put plainly: Inhibition of mouse 11beta-HSD1 by SPA.
The target of series [2] is T1, 11-beta-hydroxysteroid dehydrogenase 1 (Homo sapiens, UniProt P28845). Put plainly: Inhibition of human 11beta-HSD1 by SPA.
T1 sequence (P28845 whole entry): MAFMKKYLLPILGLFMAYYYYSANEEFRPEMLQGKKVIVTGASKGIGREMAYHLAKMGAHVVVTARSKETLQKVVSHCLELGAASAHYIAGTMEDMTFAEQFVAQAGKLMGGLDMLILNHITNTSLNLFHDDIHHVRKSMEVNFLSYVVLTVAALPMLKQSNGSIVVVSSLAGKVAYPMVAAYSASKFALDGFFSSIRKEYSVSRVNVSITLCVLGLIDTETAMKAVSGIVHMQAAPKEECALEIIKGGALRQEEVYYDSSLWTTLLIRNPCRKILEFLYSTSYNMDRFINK
In series [3] the target is T2, 11-beta-hydroxysteroid dehydrogenase type 2 (Homo sapiens, UniProt P80365).
T2 sequence (P80365 whole entry): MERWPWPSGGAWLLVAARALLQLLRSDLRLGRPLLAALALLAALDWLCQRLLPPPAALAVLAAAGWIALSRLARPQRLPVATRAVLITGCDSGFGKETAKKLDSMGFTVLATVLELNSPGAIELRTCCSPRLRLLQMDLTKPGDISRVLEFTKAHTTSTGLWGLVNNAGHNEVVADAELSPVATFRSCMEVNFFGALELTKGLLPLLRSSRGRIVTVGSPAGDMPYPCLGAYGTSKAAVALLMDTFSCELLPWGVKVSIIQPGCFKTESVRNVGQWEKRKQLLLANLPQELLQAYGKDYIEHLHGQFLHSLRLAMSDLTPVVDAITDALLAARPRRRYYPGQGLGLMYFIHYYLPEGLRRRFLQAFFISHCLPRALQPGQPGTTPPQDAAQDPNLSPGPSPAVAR
Put plainly: Inhibition of human 11beta-HSD2 by SPA.

Series [4] is described as follows: Metabolic stability in mouse liver microsome after 30 mins. Type of series: ADME. The following applies: liver microsomes, read-out: Stability.
Series [5] deals with T1, 11-beta-hydroxysteroid dehydrogenase 1. Put plainly: Inhibition of human 11beta-HSD1 expressed in HEK293 cells by FPIA. Format: cell-based.
For series [6], the target named is T3, 11-beta-hydroxysteroid dehydrogenase type 2 (Mus musculus, UniProt P51661).
T3 sequence (P51661 whole entry): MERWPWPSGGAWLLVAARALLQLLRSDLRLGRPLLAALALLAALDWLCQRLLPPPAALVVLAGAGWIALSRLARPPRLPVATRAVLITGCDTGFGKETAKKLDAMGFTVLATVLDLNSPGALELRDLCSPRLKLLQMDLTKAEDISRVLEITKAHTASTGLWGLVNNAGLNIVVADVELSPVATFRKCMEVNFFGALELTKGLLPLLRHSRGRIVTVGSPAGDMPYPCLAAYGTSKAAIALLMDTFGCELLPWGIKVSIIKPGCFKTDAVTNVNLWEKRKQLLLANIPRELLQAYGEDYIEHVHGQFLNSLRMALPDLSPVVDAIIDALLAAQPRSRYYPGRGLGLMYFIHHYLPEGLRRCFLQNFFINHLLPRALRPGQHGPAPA
Kind of series: Inhibition of mouse 11beta-HSD2 by SPA.

The nature of series [7]: Plasma clearance in ob/ob mouse at 5 mg/kg, iv or 10 mg/kg, po. Format: ADME, organism-based.
Series [8] is described as follows: Bioavailability in ob/ob mouse at 10 mg/kg. Type of series: ADME, organism-based. The following applies: in vivo, oral.
The nature of series [9]: Half life in ob/ob mouse at 5 mg/kg, iv or 10 mg/kg, po. The settings on record: in vivo. Format: ADME, organism-based.
For series [10], the system named is Mus musculus. Kind of series: Ex vivo inhibition of 11beta-HSD1 in ob/ob mouse fat at 30 mg/kg, po after 7 hrs. Type of series: functional.
Series [11] concerns Mus musculus. Kind of series: Ex vivo inhibition of 11beta-HSD1 in ob/ob mouse fat at 30 mg/kg, po after 1 hr. Type of series: functional.
For series [12], the system named is Mus musculus. Kind of series: Ex vivo inhibition of 11beta-HSD1 in ob/ob mouse fat at 30 mg/kg, po after 16 hrs. Format: functional.
The test system of series [13] is Mus musculus. Put plainly: Ex vivo inhibition of 11beta-HSD1 in ob/ob mouse liver at 30 mg/kg, po after 7 hrs. Type of series: functional.
In series [14] the test system is Mus musculus. Put plainly: Ex vivo inhibition of 11beta-HSD1 in ob/ob mouse liver at 30 mg/kg, po after 16 hrs. Type of series: functional.
In series [15] the test system is Mus musculus. Put plainly: Ex vivo inhibition of 11beta-HSD1 in ob/ob mouse liver at 30 mg/kg, po after 1 hr. Type of series: functional.
Series [16] has as its system Mus musculus. Put plainly: Ex vivo inhibition of 11beta-HSD1 in ob/ob mouse brain at 30 mg/kg, po after 16 hrs. Format: functional.
Series [17] relates to Mus musculus. Put plainly: Ex vivo inhibition of 11beta-HSD1 in ob/ob mouse brain at 30 mg/kg, po after 1 hr. Type of series: functional.
The test system of series [18] is Mus musculus. Kind of series: Ex vivo inhibition of 11beta-HSD1 in ob/ob mouse brain at 30 mg/kg, po after 7 hrs. Type of series: functional.

Chain of 11-beta-hydroxysteroid dehydrogenase 1 (Mus musculus, UniProt P50172) (P50172 whole entry): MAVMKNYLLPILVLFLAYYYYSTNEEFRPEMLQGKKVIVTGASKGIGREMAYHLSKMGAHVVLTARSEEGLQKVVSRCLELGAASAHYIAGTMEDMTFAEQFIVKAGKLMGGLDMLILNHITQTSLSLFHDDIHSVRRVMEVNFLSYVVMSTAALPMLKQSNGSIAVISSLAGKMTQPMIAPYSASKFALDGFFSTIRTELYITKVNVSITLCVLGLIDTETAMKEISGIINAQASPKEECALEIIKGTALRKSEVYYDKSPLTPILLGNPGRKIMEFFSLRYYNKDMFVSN

Take `CC(C)(Oc1cccc(Cl)c1)C(=O)N[C@H]1C2CC3CC1C[C@](C(=O)O)(C3)C2`: the pIC50 in series [1] was 7.29; in series [2] it was 7.82; in series [3] it was 5.46; in series [5], 6.72; in [6], 6.27. In addition, the remaining at 0.5 h in [4] turned out to be 100%.

Regarding `CC(C)(Oc1ccc(Cl)cc1)C(=O)N[C@H]1C2CC3CC1C[C@](C(N)=O)(C3)C2`, in series [7], the clearance is 70 mL/min/kg. Moreover, in [1], the pIC50 was 8.52. In [8], this compound gave a bioavailability of 20%. The same compound showed a half-life in [9] of 0.3 h. The remaining at 0.5 h in [4] amounted to 43%.

As to `CC(C)(Oc1ccc(Cl)cc1)C(=O)N[C@H]1C2CC3CC1C[C@](C(=O)NCc1ccc(C(=O)O)cc1)(C3)C2`, the inhibition in vivo at 30 mg/kg with Mus musculus [10] worked out at 38%; with Mus musculus [11], 37%; in the series with Mus musculus [12], 36%; in the series with Mus musculus [13], 93%; with Mus musculus [14], 77%; with Mus musculus [15], 99%. The compound also showed a pIC50 in series [1] of 7.92. Also, the remaining at 0.5 h in [4] stood at 94%.

The compound `CC(C)(Oc1ccccc1Cl)C(=O)N[C@H]1C2CC3CC1C[C@](C(=O)O)(C3)C2` showed a clearance in series [7] of 15 mL/min/kg. In addition, the inhibition in vivo at 30 mg/kg in the series on Mus musculus [10] worked out at 47%; in the series on Mus musculus [11], 67%; with Mus musculus [12] it was 6%; in the series on Mus musculus [13], 76%; in the series on Mus musculus [14], 35%; in the series on Mus musculus [15], 81%. For the same compound, the pIC50 was 8.10 in series [1]; 8.10 in [2]; 5.74 in series [3]; 7.23 in series [5]; 6.85 in series [6]. The compound also yielded a bioavailability in series [8] of 100%. In series [9], this compound showed a half-life of 3.9 h. The remaining at 0.5 h in [4] was 94%.

In the case of `CC(C)(Oc1ccc(Cl)cc1)C(=O)N[C@H]1C2CC3CC1C[C@](C(=O)NCc1ccc(C(=O)NS(C)(=O)=O)cc1)(C3)C2`, the remaining at 0.5 h in [4] came to 51%.

`CC(C)(Oc1ccc(Cl)cc1)C(=O)N[C@H]1C2CC3CC1C[C@](C(=O)NCc1ccc(-c4nnn[nH]4)cc1)(C3)C2`: in series [1], the pIC50 is 7.74. Also, in series [4], the remaining at 0.5 h was 51%.

`CC(C)(Oc1ccc(Cl)cc1)C(=O)N[C@H]1C2CC3CC1C[C@](C(=O)NCc1ccc(S(N)(=O)=O)cc1)(C3)C2` gave a clearance in [7] of 15 mL/min/kg. Also, the inhibition in vivo at 30 mg/kg in the series on Mus musculus [10] is 18%; with Mus musculus [11], 15%; in the series on Mus musculus [16], 18%; with Mus musculus [12] it was 5%; in the series on Mus musculus [17] it was 0%; in the series with Mus musculus [18], 0%. Also, the inhibition in vivo at 30 mg/kg in the series with Mus musculus [13] came out at 55%; in the series with Mus musculus [14], 58%; in the series with Mus musculus [15], 45%. The pIC50 was 7.62 in [1]; 7.29 in series [2]; below 4.52 in [3]; 6.52 in series [5]; 4.80 in series [6]. In addition, the bioavailability in [8] was 44%. This compound showed a half-life in series [9] of 3.8 h. The remaining at 0.5 h in series [4] was determined as 35%.

In the case of `CC(C)(Oc1ccc(Cl)cc1)C(=O)N[C@H]1C2CC3CC1C[C@](C(=O)NCc1ccncc1)(C3)C2`, the pIC50 was 7.85 in series [1]; 7.60 in series [2]; 5.28 in [3]; 7.04 in series [5]; 4.72 in series [6]. Besides, the remaining at 0.5 h in series [4] worked out at 16%.

Consider `CNC(=O)NC(=O)[C@]12CC3CC(C1)[C@@H](NC(=O)C(C)(C)Oc1ccc(Cl)cc1)C(C3)C2`, for which the pIC50 in series [1] is 8.10.

For the compound `CC(C)(Oc1ccc(Cl)cc1)C(=O)N[C@H]1C2CC3CC1C[C@](CO)(C3)C2`, the pIC50 in series [1] was 8.22. Further, the remaining at 0.5 h in series [4] is 19%.

Consider `CC(C)(Oc1ccc(Cl)cc1)C(=O)N[C@H]1C2CC3CC1C[C@](COCC(=O)O)(C3)C2`, for which the pIC50 was 6.68 in [1]; 6.96 in series [2]; below 4.00 in [3]; 6.17 in series [5]; 4.35 in series [6]. For the same compound, the remaining at 0.5 h in series [4] came to 100%.

`CC(C)(Oc1ccc(F)cc1Cl)C(=O)N[C@H]1C2CC3CC1C[C@](c1nnn[nH]1)(C3)C2`: the pIC50 in [1] is 8.00. The remaining at 0.5 h in [4] was determined as 87%.

Turning to `CC(C)(Oc1ccccc1Cl)C(=O)N[C@H]1C2CC3CC1C[C@](C(=O)NS(C)(=O)=O)(C3)C2`, the pIC50 is 7.55 in series [1]; 7.02 in [2]; 6.24 in [3]; 6.13 in series [5]; 5.92 in series [6]. The remaining at 0.5 h in [4] worked out at 94%.

In the case of `CC(C)(Oc1ccccc1Cl)C(=O)N[C@H]1C2CC3CC1C[C@](C(=O)NS(=O)(=O)c1ccccc1)(C3)C2`, the pIC50 in series [1] is 6.00; in [2], 6.30.

`CC(C)(Oc1ccccc1)C(=O)N[C@H]1C2CC3CC1C[C@](C(=O)O)(C3)C2` gave a pIC50 in series [1] of 6.92. In addition, the remaining at 0.5 h in series [4] came to 98%.

With `COc1ccc(OC(C)(C)C(=O)N[C@H]2C3CC4CC2C[C@](C(N)=O)(C4)C3)cc1`, the pIC50 in series [1] is 8.40. Further, the remaining at 0.5 h in [4] came out at 57%.

For `CC(C)(Oc1ccc(Cl)cc1)C(=O)N[C@H]1C2CC3CC1C[C@](C(=O)NCc1cncs1)(C3)C2`, in series [1], the pIC50 is 7.96. For the same compound, in series [4], the remaining at 0.5 h worked out at 5%.

Compound `CC(C)(Oc1ccc(Cl)cc1)C(=O)N[C@H]1C2CC3CC1C[C@](C(=O)NCC(N)=O)(C3)C2` had a pIC50 in series [1] of 8.40. In addition, the remaining at 0.5 h in [4] was determined as 78%.

For the compound `CC(C)(Oc1ccccc1)C(=O)N[C@H]1C2CC3CC1C[C@](C(N)=O)(C3)C2`, the pIC50 in series [1] is 8.40. In addition, the remaining at 0.5 h in series [4] was found to be 78%.

`CC(C)(Oc1ccc(Cl)cc1)C(=O)N[C@H]1C2CC3CC1C[C@](C(=O)O)(C3)C2` had a pIC50 in series [1] of 7.15. Also, in [4], the remaining at 0.5 h is 89%.
